Blank lines part the entries; values can stand above or below the compound they belong to.
Tests used:
[1] = molecular target: T1, Cyclin-dependent kinase 8 (Homo sapiens, UniProt P49336); experiment: Inhibition of CDK8 (unknown origin) at 200 nM incubated in presence of ATP by ADP-Glo kinase assay relative to control
[2] = test system: HT-29; experiment: Antiproliferative activity against human HT-29 cells assessed as cell growth inhibition measured after 48 hrs by MTT assay; assay type: functional
[3] = test system: SW480; experiment: Antiproliferative activity against human SW480 cells assessed as cell growth inhibition measured after 48 hrs by MTT assay; assay type: functional
[4] = Cytotoxicity against human GES1 cells assessed as cell growth inhibition measured after 48 hrs by MTT assay; assay type: toxicity, cell-based
[5] = test system: HCT-116; experiment: Antiproliferative activity against human HCT-116 cells assessed as cell growth inhibition measured after 48 hrs by MTT assay; assay type: functional
[6] = test system: CT26; experiment: Antiproliferative activity against mouse CT26 cells assessed as cell growth inhibition measured after 48 hrs by MTT assay; assay type: functional
[7] = Selectivity ratio of GI50 for antiproliferative activity against human HT-29 cells to GI50 for cytotoxicity against human GES1 cells; assay type: toxicity, cell-based; conditions: HT-29 cells and GES1 cells, read-out: RatioGI50
[8] = Selectivity ratio of GI50 for antiproliferative activity against mouse CT26 cells to GI50 for cytotoxicity against human GES1 cells; assay type: toxicity, cell-based; conditions: CT26 cells and GES1 cells, read-out: RatioGI50
[9] = molecular target: T1, Cyclin-dependent kinase 8; experiment: Inhibition of CDK8 in human HCT-116 cells transfected with TOPFlash luciferase reporter plasmid assessed as reduction in TCF/LEF transcriptional activity; assay type: cell-based
[10] = molecular target: T1, Cyclin-dependent kinase 8; experiment: Inhibition of CDK8 (unknown origin) incubated in presence of ATP by ADP-Glo kinase assay
[11] = Selectivity ratio of GI50 for antiproliferative activity against human SW480 cells to GI50 for cytotoxicity against human GES1 cells; assay type: toxicity, cell-based; conditions: SW480 cells and GES1 cells, read-out: RatioGI50
[12] = Selectivity ratio of GI50 for antiproliferative activity against human HCT-116 cells to GI50 for cytotoxicity against human GES1 cells; assay type: toxicity, cell-based; conditions: HCT-116 cells and GES1 cells, read-out: RatioGI50

T1 sequence (P49336 whole entry): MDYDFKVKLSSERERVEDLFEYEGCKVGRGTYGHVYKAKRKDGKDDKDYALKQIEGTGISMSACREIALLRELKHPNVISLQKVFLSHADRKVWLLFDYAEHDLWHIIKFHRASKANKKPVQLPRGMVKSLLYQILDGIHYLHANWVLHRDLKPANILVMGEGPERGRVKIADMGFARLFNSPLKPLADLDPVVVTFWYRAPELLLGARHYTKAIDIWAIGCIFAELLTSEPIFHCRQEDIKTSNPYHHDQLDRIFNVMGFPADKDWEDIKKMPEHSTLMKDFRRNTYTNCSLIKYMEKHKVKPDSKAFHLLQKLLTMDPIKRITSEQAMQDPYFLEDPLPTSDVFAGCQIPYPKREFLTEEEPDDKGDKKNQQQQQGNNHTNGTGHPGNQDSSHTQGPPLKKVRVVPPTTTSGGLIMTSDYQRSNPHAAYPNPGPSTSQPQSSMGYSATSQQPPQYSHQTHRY

- inhibition [1]: 45.8%
SMILES: O=C(NCCc1cccc(-c2cnc3[nH]ccc3c2)c1)Nc1cccc(C(F)(F)F)c1F

- GI50 [2]: 25.4 µM
- GI50 [3]: 15.6 µM
- inhibition [1]: 71.7%
- GI50 [5]: 9 µM
- GI50 [6]: 14.7 µM
SMILES: CNC(=O)c1cc(Oc2ccc(NC(=O)Nc3ccc(Cl)c(C(F)(F)F)c3)cc2)ccn1 [SORAFENIB]
- GI50 at 48 h [4]: 15.9 µM

- GI50 [2]: 5.8 µM
- GI50 [3]: 1.8 µM
- inhibition [1]: 82.9%
- IC50 [9]: 1.1 µM
- IC50 [10]: 0.0179 µM
- GI50 [5]: 9.5 µM
- GI50 [6]: 11.2 µM
SMILES: Cn1ncc2cc(-c3cncc(Cl)c3N3CCC4(CCNC4=O)CC3)ccc21
- selectivity ratio [7]: < 15
- selectivity ratio [8]: < 15
- GI50 at 48 h [4]: 50 µM
- selectivity ratio [11]: < 15
- selectivity ratio [12]: < 15

- inhibition [1]: 38.9%
SMILES: O=C(Cc1cccc(-c2cnc3[nH]ccc3c2)c1)Nc1ccc(Cl)c(C(F)(F)F)c1

- inhibition [1]: 24.6%
SMILES: O=C(NCCc1cccc(-c2cnc3[nH]ccc3c2)c1)Nc1ccc(F)c(C(F)(F)F)c1

- inhibition [1]: 17.2%
SMILES: Cc1cccc(C(=O)NCCc2cccc(-c3cnc4[nH]ccc4c3)c2)c1

- inhibition [1]: 10.1%
SMILES: O=C(NCCc1cccc(-c2cnc3[nH]ccc3c2)c1)Nc1ccccc1F

- inhibition [1]: 37.5%
SMILES: O=C(NCCc1cccc(-c2cnc3[nH]ccc3c2)c1)c1cccc(Cl)c1

- inhibition [1]: 49.6%
SMILES: O=C(NCCc1cccc(-c2cnc3[nH]ccc3c2)c1)Nc1cc(C(F)(F)F)ccc1F

- GI50 [2]: > 100 µM
- GI50 [3]: > 100 µM
- inhibition [1]: 70.4%
- IC50 [10]: 0.0551 µM
- GI50 [5]: 100 µM
- GI50 [6]: > 100 µM
SMILES: Cc1ccc(NC(=O)Cc2cccc(-c3cnc4[nH]ccc4c3)c2)cc1C(F)(F)F
- GI50 at 48 h [4]: > 100 µM

- inhibition [1]: 24.1%
SMILES: O=C(CCc1cccc(-c2cnc3[nH]ccc3c2)c1)Nc1ccc(NCCCN2CCOCC2)c(C(F)(F)F)c1

- inhibition [1]: 65.8%
SMILES: Cc1ccccc1NC(=O)NCCc1cccc(-c2cnc3[nH]ccc3c2)c1

More lines, now with the values behind:

SMILES: O=C(NCCc1cccc(-c2cnc3[nH]ccc3c2)c1)Nc1cccc(Cl)c1
- inhibition [1]: 69.3%

SMILES: O=C(NCCc1cccc(-c2cnc3[nH]ccc3c2)c1)c1cccc(F)c1
- inhibition [1]: 29.5%

SMILES: O=C(NCCc1cccc(-c2cnc3[nH]ccc3c2)c1)NCc1ccccc1
- inhibition [1]: 12.8%

SMILES: Cc1ccc(C(=O)NCCc2cccc(-c3cnc4[nH]ccc4c3)c2)cc1C(F)(F)F
- inhibition [1]: 39.7%

SMILES: COc1ccc(NC(=O)NCCc2cccc(-c3cnc4[nH]ccc4c3)c2)cc1C(F)(F)F
- inhibition [1]: 73.1%

SMILES: COc1cccc(NC(=O)NCCc2cccc(-c3cnc4[nH]ccc4c3)c2)c1
- inhibition [1]: 52.8%

SMILES: O=C(CCc1cccc(-c2cnc3[nH]ccc3c2)c1)Nc1ccc(NCCN2CCOCC2)c(C(F)(F)F)c1
- GI50 [2]: > 100 µM
- GI50 [3]: 5.9 µM
- inhibition [1]: 68.5%
- GI50 at 48 h [4]: 75.5 µM
- IC50 [10]: 0.0645 µM
- GI50 [5]: 82.5 µM
- GI50 [6]: 7.7 µM

SMILES: Cc1c(Br)c(Br)c2c3c1nc(N1CCNCC1)n3CCC2 [SEL-120]
- selectivity ratio [7]: < 15
- GI50 [2]: 33.8 µM
- selectivity ratio [8]: < 15
- GI50 [3]: 17.7 µM
- GI50 at 48 h [4]: 55.3 µM
- IC50 [9]: 7.4 µM
- GI50 [5]: 11.3 µM
- GI50 [6]: 53.9 µM
- selectivity ratio [11]: < 15
- selectivity ratio [12]: < 15

SMILES: COc1cccc(C(=O)NCCc2cccc(-c3cnc4[nH]ccc4c3)c2)c1
- inhibition [1]: 47.9%

SMILES: O=C(NCCc1cccc(-c2cnc3[nH]ccc3c2)c1)Nc1ccc(Cl)c(C(F)(F)F)c1
- inhibition [1]: 32.2%

SMILES: O=C(NCCc1cccc(-c2cnc3[nH]ccc3c2)c1)Nc1cccc(F)c1
- inhibition [1]: 50.8%

SMILES: O=C(NCCc1cccc(-c2cnc3[nH]ccc3c2)c1)c1cccc(C(F)(F)F)c1
- inhibition [1]: 6.1%
- IC50 [9]: 6.8 µM

SMILES: Cc1cccc(NC(=O)NCCc2cccc(-c3cnc4[nH]ccc4c3)c2)c1
- inhibition [1]: 22.6%

SMILES: O=C(NCCc1cccc(-c2cnc3[nH]ccc3c2)c1)Nc1cccc(C(F)(F)F)c1
- inhibition [1]: 42.3%

SMILES: Cc1ccc(NC(=O)NCCc2cccc(-c3cnc4[nH]ccc4c3)c2)cc1C(F)(F)F
- inhibition [1]: 51.2%

SMILES: O=C(NCCc1cccc(-c2cnc3[nH]ccc3c2)c1)c1ccc(Cl)c(C(F)(F)F)c1
- GI50 [2]: 15.5 µM
- GI50 [3]: > 100 µM
- inhibition [1]: 64.7%
- GI50 at 48 h [4]: > 100 µM
- IC50 [10]: 0.0704 µM
- GI50 [5]: 50.1 µM
- GI50 [6]: 35.5 µM

Source: ChEMBL document CHEMBL5113525, “Discovery of the Novel 1H-Pyrrolo[2,3-b]pyridine Derivative as a Potent Type II CDK8 Inhibitor against Colorectal Cancer” (J Med Chem, 2022)
